Reference: US8859549B2, “Potassium channel modulators” (AbbVie, Inc., priority 2011, dated 2014)

Target: T1, KCNQ 2/3 channels (Homo sapiens, UniProt O43525+O43526)
T1 construct: expressed in transfected cells; host or cells: HEK293
Test: KCNQ 2/3 channel activation, thallium flux FLIPR assay (BTC-AM dye)
Type: cell-based
Details: for Emax: HEK293, maximum response relative to the response of 10 μM retigabine (set at 100%), read-out: % MAX; for EC50: HEK293 cells stably expressing human KCNQ2 and KCNQ3 subunits, thallium-induced fluorescence, 4 min compound incubation
Protocol: The following example describes the assay that can be used to identify compounds that activate KCNQ 2/3 channels.
HEK293 cells stably expressing human KCNQ2 and KCNQ3 subunits were seeded in 96-well, black-walled, clear-bottomed, poly-D-lysine coated plates (BD Biosciences, Bedford, Mass.) at a density of 1×10^5 cells per well 24 hours before the assay. On the assay day, BTC-AM dye (Invitrogen, Carlsbad, Calif.) was loaded into the cells by replacing the cell culture medium with 55 μL/well of 3 μg/mL dye in DPBS. Dye loading was allowed to proceed for 2 hours at room temperature and then cells were washed twice with 50 μL/well of assay buffer (in mM: 10 HEPES pH 7.3, 5 glucose, 140 Na-gluconate, 2.5 K-gluconate, 3.6 Ca-gluconate, 2 MgSO4, 0.1 Ouabain) to remove unloaded dye. Cells were incubated in 50 μL of assay buffer before loading onto a FLIPR system (Molecular Devices, Sunnyvale, Calif.). Various concentrations of compounds to be assayed were added to the cells in 50 μL of assay buffer and incubated for 4 minutes. The fluorescence signal was initiated by adding 100 μL of assay buffer containing 6 mM TlNO3 and 10 mM K2SO4. Fluors were excited using the 488-nm line of an argon laser and emission was filtered using a 540±30 nm bandpass filter. Fluorescent signals were recorded for 3 minutes. Sums of the responses over basal responses were plotted versus concentrations of test compounds to obtain an EC50 value. The maximum response for each test compound was determined relative to the response produced by 10 μM retigabine. The maximum response of retigabine at 10 μM was set at 100%.

Emax (HEK293 KCNQ2/KCNQ3 cells)	EC50	% MAX (maximum response relative to the response of 10 μM retigabine (set at 100%), HEK293 KCNQ2/KCNQ3 cells)	SMILES
177%	206 nM	–	CC(C)(C)NC(=O)c1nn(NC(=O)CC2CC3CCC2C3)c(=O)c2ccccc12 (racemic) [Example 99, (±)-3-{[(exo)-bicyclo[2.2.1]hept-2-ylacetyl]amino}-N-tert-butyl-4-oxo-3,4-dihydrophthalazine-1-carboxamide]
3%	–	–	Cc1ccc(C)c(CC(=O)Nn2nc(N3CCOCC3)c3ccccc3c2=O)c1 [Example 167, 2-(2,5-dimethylphenyl)-N-[4-(morpholin-4-yl)-1-oxophthalazin-2(1H)-yl]acetamide]
37%	–	–	CS(=O)(=O)c1ccc(CC(=O)Nn2nc(S(=O)(=O)c3ccccc3)c3ccccc3c2=O)cc1 [Example 189, 2-[4-(methylsulfonyl)phenyl]-N-[1-oxo-4-(phenylsulfonyl)phthalazin-2(1H)-yl]acetamide]
145%	14.6 nM	–	N#Cc1ccc(S(=O)(=O)c2nn(NC(=O)C[C@H]3C[C@@H]4CC[C@H]3C4)c(=O)c3ccccc23)cc1 (racemic) [Example 219, (±)-2-[(exo)-bicyclo[2.2.1]hept-2-yl]-N-{4-[(4-cyanophenyl)sulfonyl]-1-oxophthalazin-2(1H)-yl}acetamide]
5.96%	–	–	COC(=O)N[C@H](C(=O)NCc1nn(NC(=O)Cc2ccc(Cl)cc2)c(=O)c2ccccc12)C(C)C [Example 183, methyl[(2S)-1-{[(3-{[(4-chlorophenyl)acetyl]amino}-4-oxo-3,4-dihydrophthalazin-1-yl)methyl]amino}-3-methyl-1-oxobutan-2-yl]carbamate]
201%	76.7 nM	–	CC(C)(C)OC(=O)c1nn(NC(=O)CC2CC3CCC2C3)c(=O)c2ccccc12 (racemic) [Example 94, (±)-tert-butyl 3-{[(exo)-bicyclo[2.2.1]hept-2-ylacetyl]amino}-4-oxo-3,4-dihydrophthalazine-1-carboxylate]
5.33%	–	–	CS(=O)(=O)c1ccc(CC(=O)Nn2nc(N3CCOCC3)c3ccccc3c2=O)cc1 [Example 130, 2-[4-(methylsulfonyl)phenyl]-N-[4-(morpholin-4-yl)-1-oxophthalazin-2(1H)-yl]acetamide]
2.26%	–	–	CC(C(=O)O)c1nn(NC(=O)Cc2ccc(Cl)cc2)c(=O)c2ccccc12 (stereo not shown) [Example 110, 2-(3-{[(4-chlorophenyl)acetyl]amino}-4-oxo-3,4-dihydrophthalazin-1-yl)propanoic acid]
17.6%	–	–	COc1cccc(CC(=O)Nn2nc(N3CCOCC3)c3ccccc3c2=O)c1 [Example 146, 2-(3-methoxyphenyl)-N-[4-(morpholin-4-yl)-1-oxophthalazin-2(1H)-yl]acetamide]
62.1%	9680 nM	–	O=C(Cc1cccc(C(F)(F)F)c1)Nn1nc(N2CCOCC2)c2ccccc2c1=O [Example 160, N-[4-(morpholin-4-yl)-1-oxophthalazin-2(1H)-yl]-2-[3-(trifluoromethyl)phenyl]acetamide]
7.96%	–	–	O=C(Cc1cccc2ccccc12)Nn1nc(N2CCOCC2)c2ccccc2c1=O [Example 165, N-[4-(morpholin-4-yl)-1-oxophthalazin-2(1H)-yl]-2-(naphthalen-1-yl)acetamide]
45%	916 nM	–	O=C(Cc1cc(F)cc(F)c1)Nn1nc(S(=O)(=O)Cc2ccccc2)c2ccccc2c1=O [Example 215, N-[4-(benzylsulfonyl)-1-oxophthalazin-2(1H)-yl]-2-(3,5-difluorophenyl)acetamide]
33.3%	–	–	O=C(Cc1cccc(C(F)(F)F)c1)Nn1nc(S(=O)(=O)c2ccccc2)c2ccccc2c1=O [Example 208, N-[1-oxo-4-(phenylsulfonyl)phthalazin-2(1H)-yl]-2-[3-(trifluoromethyl)phenyl]acetamide]
33.9%	–	–	CC(C)(C)OC(=O)NCc1nn(NC(=O)C[C@@H]2CC[C@H]3C[C@@H]2C3(C)C)c(=O)c2ccccc12 [Example 119, tert-butyl{[3-({[(1S,2S,5S)-6,6-dimethylbicyclo[3.1.1]hept-2-yl]acetyl}amino)-4-oxo-3,4-dihydrophthalazin-1-yl]methyl}carbamate]
22%	–	–	O=C(Cc1ccc(OCc2ccccc2)cc1)Nn1nc(N2CCOCC2)c2ccccc2c1=O [Example 164, 2-[4-(benzyloxy)phenyl]-N-[4-(morpholin-4-yl)-1-oxophthalazin-2(1H)-yl]acetamide]
86.2%	149 nM	–	N#Cc1ccc(S(=O)(=O)c2nn(NC(=O)Cc3cc(F)cc(F)c3)c(=O)c3ccccc23)cc1 [Example 223, N-{4-[(4-cyanophenyl)sulfonyl]-1-oxophthalazin-2(1H)-yl}-2-(3,5-difluorophenyl)acetamide]

Second part, the molecule before the results:

SMILES	Emax (HEK293 KCNQ2/KCNQ3 cells)	EC50	% MAX (maximum response relative to the response of 10 μM retigabine (set at 100%), HEK293 KCNQ2/KCNQ3 cells)
CCOC(=O)c1nn(NC(=O)CC2CC3CCC2C3)c(=O)c2ccccc12 (racemic) [Example 51, (±)-ethyl 3-{[(exo)-bicyclo[2.2.1]hept-2-ylacetyl]amino}-4-oxo-3,4-dihydrophthalazine-1-carboxylate]	171%	275 nM	–
Cc1ccsc1-c1nn(NC(=O)C[C@@H]2C[C@@H]3C=C[C@H]2C3)c(=O)c2ccccc12 [Example 17, 2-[(1S,2S,4S)-bicyclo[2.2.1]hept-5-en-2-yl]-N-[4-(3-methylthiophen-2-yl)-1-oxophthalazin-2(1H)-yl]acetamide]	139%	209 nM	–
CN(Cc1ccccc1)c1nn(NC(=O)CC2CC3CCC2C3)c(=O)c2ccccc12 (racemic) [Example 37, (±)-N-{4-[benzyl(methyl)amino]-1-oxophthalazin-2(1H)-yl}-2-[(exo)-bicyclo[2.2.1]hept-2-yl]acetamide]	160%	42.3 nM	–
CCOC(=O)c1nn(NC(=O)Cc2ccc(Cl)cc2)c(=O)c2ccccc12 [Example 63, ethyl 3-{[(4-chlorophenyl)acetyl]amino}-4-oxo-3,4-dihydrophthalazine-1-carboxylate]	64.8%	862 nM	–
Cc1ccsc1-c1nn(NC(=O)Cc2ccc(Cl)cc2)c(=O)c2ccccc12 [Example 15, 2-(4-chlorophenyl)-N-[4-(3-methylthiophen-2-yl)-1-oxophthalazin-2(1H)-yl]acetamide]	124%	858 nM	–
O=C(CC1CC2CCC1C2)Nn1nc(-c2ccnc(C(=O)O)c2)c2ccccc2c1=O (racemic) [Example 75, (±)-4-(3-{[(exo)-bicyclo[2.2.1]hept-2-ylacetyl]amino}-4-oxo-3,4-dihydrophthalazin-1-yl)pyridine-2-carboxylic acid]	183%	4120 nM	–
CC1CN(c2nn(NC(=O)CC3CC4CCC3C4)c(=O)c3ccccc23)CC(C)O1 (racemic) [Example 64, (±)-2-[(exo)-bicyclo[2.2.1]hept-2-yl]-N-[4-(2,6-dimethylmorpholin-4-yl)-1-oxophthalazin-2(1H)-yl]acetamide]	–	90.9 nM	144%
O=C(CC1CC2CCC1C2)Nn1nc(N2CCCC2)c2ccccc2c1=O (racemic) [Example 23, (±)-2-[(exo)-bicyclo[2.2.1]hept-2-yl]-N-[1-oxo-4-(pyrrolidin-1-yl)phthalazin-2(1H)-yl]acetamide]	147%	62.8 nM	–
CN(C)C(=O)c1nn(NC(=O)CC2CC3CCC2C3)c(=O)c2ccccc12 (racemic) [Example 56, (±)-3-{[(exo)-bicyclo[2.2.1]hept-2-ylacetyl]amino}-N,N-dimethyl-4-oxo-3,4-dihydrophthalazine-1-carboxamide]	84.9%	–	–
C[C@@H]1CN(c2nn(NC(=O)CC(C)(C)c3ccccc3)c(=O)c3ccccc23)C[C@H](C)O1 [Example 89, N-{4-[(cis)-2,6-dimethylmorpholin-4-yl]-1-oxophthalazin-2(1H)-yl}-3-methyl-3-phenylbutanamide]	183%	350 nM	–
C[C@@H]1CN(c2nn(NC(=O)Cc3cc(F)cc(F)c3)c(=O)c3ccccc23)C[C@H](C)O1 [Example 88, 2-(3,5-difluorophenyl)-N-{4-[(cis)-2,6-dimethylmorpholin-4-yl]-1-oxophthalazin-2(1H)-yl}acetamide]	107%	998 nM	–
O=C(CC1CC2CCC1C2)Nn1nc(Oc2ccccc2)c2ccccc2c1=O (racemic) [Example 39, (±)-2-[(exo)-bicyclo[2.2.1]hept-2-yl]-N-(1-oxo-4-phenoxyphthalazin-2(1H)-yl)acetamide]	150%	9.05 nM	–
O=C(CC1CC2CCC1C2)Nn1nc(-c2ccc(F)nc2)c2ccccc2c1=O (racemic) [Example 54, (±)-2-[(exo)-bicyclo[2.2.1]hept-2-yl]-N-[4-(6-fluoropyridin-3-yl)-1-oxophthalazin-2(1H)-yl]acetamide]	183%	408 nM	–
O=C(Cc1ccc(Cl)cc1)Nn1nc(Sc2ccccc2)c2ccccc2c1=O [Example 58, 2-(4-chlorophenyl)-N-[1-oxo-4-(phenylsulfanyl)phthalazin-2(1H)-yl]acetamide]	120%	82.6 nM	–
